# From US20100184809A1, “Heterocyclic FXR Binding Compounds” (PHENEX PHARMACEUTICALS AG, priority 2006, published 2010)
# Target: T1, human FXRalpha ligand binding domain (LBD) (Homo sapiens, UniProt Q96RI1)
# T1 construct: made in house; host or cells: E. coli BL21(DE3), vector pDEST15
# T1 sequence (Q96RI1 187-472 isoform Q96RI1-2): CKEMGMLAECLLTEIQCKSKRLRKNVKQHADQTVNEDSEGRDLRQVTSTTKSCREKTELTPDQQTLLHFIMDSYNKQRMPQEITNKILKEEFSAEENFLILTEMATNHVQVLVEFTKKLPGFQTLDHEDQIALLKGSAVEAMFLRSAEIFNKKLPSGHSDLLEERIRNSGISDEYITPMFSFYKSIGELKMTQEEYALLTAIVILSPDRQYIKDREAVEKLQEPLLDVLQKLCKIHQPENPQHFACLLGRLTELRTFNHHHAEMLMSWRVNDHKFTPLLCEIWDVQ
# Assay: FRET activity assay (ligand mediated cofactor peptide interaction, LANCE)
# Format: biochemical
# Conditions: GST-FXR-LBD / biotinylated SRC-1 peptide (676-700)
# Protocol: Determination of a ligand mediated cofactor peptide interaction to quantify ligand binding to the nuclear receptor Farnesoid X Receptor (FXR) was performed as follows:
# Preparation of human farnesoid X receptor (FXR) alpha ligand binding domain: The human FXRalpha ligand binding domain (LBD) was expressed in E. coli strain BL21(DE3) as an N-terminally glutathione-[…] (GST) tagged fusion protein. The DNA encoding the FXR ligand binding domain was cloned into vector pDEST15 (Invitrogen). Expression was under control of an IPTG inducible T7 promoter. The amino acid boundaries of the ligand binding domain were amino acids 187-472 of Database entry NM_005123 (RefSeq). Expression and purification of the FXR-LBD: An overnight preculture of a transformed E. coli strain was diluted 1:20 in LB-Ampicillin medium and grown at 30° C. to an optical density of OD600=0.4-0.6. Gene expression was then induced by addition of 0.5 mM IPTG. Cells were incubated an additional 6 h at 30° C., 180 rpm. Cells were collected by centrifugation (7000×g, 7 min, room temperature). Per liter of original cell culture, cells were resuspended in 10 ml lysis buffer (50 mM Glucose, 50 mM Tris pH 7.9, 1 mM EDTA and 4 mg/ml lysozyme) and left on ice for 30 min. Cells were then subjected to sonication and cell debris removed via centrifugation (22000×g, 30 min, 4° C.). Per 10 ml of supernatant 0.5 ml prewashed Glutathione 4B sepharose slurry (Qiagen) was added and the suspension kept slowly rotating for 1 h at 4° C. Glutathione 4B sepharose beads were pelleted by centrifugation (2000 g, 15 sec, 4° C.) and washed twice in wash buffer (25 mM Tris, 50 mM KCl, 4 mM MgCl2 and 1M NaCl). The pellet was resuspended in 3 ml elution buffer per liter of original culture (elution buffer: 20 mM Tris, 60 mM KCl, 5 mM MgCl2 and 80 mM glutathione added immediately prior to use as powder). The suspension was left rotating for 15 min at 4° C., the beads pelleted and eluted again with half the volume of elution buffer than the first time. The eluates were pooled and dialysed overnight in 20 mM Hepes buffer (pH 7.5) containing 60 mM KCl, 5 mM MgCl2 as well as 1 mM dithiothreitol and 10% (v/v) glycerol. The protein was analysed by SDS-Page.
# The method measures the ability of putative ligands to modulate the interaction between the purified bacterial expressed FXR ligand binding domain (LBD) and a synthetic biotinylated peptide based on residues 676-700 of SRC-1 (LCD2, 676-700). The sequence of the peptide used was B-[…]-COOH where the N-terminus was biotinylated (B). The ligand binding domain (LBD) of FXR was expressed as fusion protein with GST in BL-21 cells using the vector pDEST15. Cells were lysed by sonication, and the fusion proteins purified over glutathione sepharose (Pharmacia) according to the manufacturers instructions. For screening of compounds for their influence on the FXR-peptide interaction, the Perkin Elmer LANCE technology was applied. This method relies on the binding dependent energy transfer from a donor to an acceptor fluorophor attached to the binding partner of interest. For ease of handling and reduction of background from compound fluorescence LANCE technology makes use of generic fluorophore labels and time resolved detection Assays were done in a final volume of 2 5 μl in a 384 well plate, in a Tris-based buffer (20 mM Tris-HCl pH 7,5; 60 mM KCl, 5 mM MgCl2; 35 ng/μl BSA), containing 20-60 ng/well recombinantly expressed FXR-LBD fused to GST, 200-600 nM N-terminally biotinylated peptide, representing SRC1 aminoacids 676-700, 200 ng/well Streptavidin-xIAPC conjugate(Prozyme) and 6-10 ng/well Eu W1024 antiGST (Perkin Elmer). DMSO content of the samples was kept at 1%. After generation of the assay mix and diluting the potentially FXR modulating ligands, the assay was equilibrated for one hour in the dark at room temperature in FIA-plates black 384 well (Greiner). […]
row,Structure (SMILES),IC50
1,"Cc1nc(OCc2c(-c3c(Cl)cccc3Cl)noc2C(C)C)ccc1N(C)C(=O)c1ccc(C(=O)O)cc1 [Example 2, 4-((6-((3-(2,6-Dichlorophenyl)-5-isopropylisoxazol-4-yl)methoxy)-2-methylpyridin-3-yl)(methyl)carbamoyl)benzoic acid]",≤ 1000 nM
2,"CC(C)c1onc(-c2c(Cl)cccc2Cl)c1COc1ccc(N(C)Cc2ccc(C(=O)NCCO)cc2)c(C(F)(F)F)n1 [Example 36, 4-(((6-((3-(2,6-Dichlorophenyl)-5-isopropylisoxazol-4-yl)methoxy)-2-(trifluoromethyl)pyridin-3-yl)(methyl)amino)methyl)-N-(2-hydroxyethyl)benzamide]",≤ 1000 nM
3,Cc1cc(OCc2c(-c3c(Cl)cccc3Cl)noc2C(C)C)ncc1NC(=O)c1ccc(C(=O)O)cc1 [Example 14],≤ 1000 nM
4,"COc1nc(OCc2c(-c3c(Cl)cccc3Cl)noc2C(C)C)ccc1N(C)S(=O)(=O)c1ccc(C(=O)O)cc1 [Example 13, 4-({6-[3-(2,6-dichloro-phenyl)-5-isopropyl-isoxazol-4-ylmethoxy]-2-methoxy-pyridin-3-yl}-methyl-sulfamoyl)-benzoic acid]",≤ 1000 nM
5,"COC(=O)c1ccc(C(=O)Nc2ccc(OCc3c(-c4c(Cl)cccc4Cl)noc3C(C)C)nc2C(F)(F)F)cc1 [Example 5, N-{6-[3-(2,6-dichloro-phenyl)-5-isopropyl-isoxazol-4-ylmethoxy]-2-trifluoromethyl-pyridin-3-yl}-terephthalamic acid methyl ester]",1000 to 10000 nM
6,"COC(=O)c1cccc(C(=O)Nc2ccc(OCc3c(-c4c(Cl)cccc4Cl)noc3C(C)C)nc2C(F)(F)F)c1 [Example 20, N-(6-[3-(2,6-Dichloro-phenyl)-5-isopropyl-isoxazol-4-ylmethoxy]-2-trifluoromethyl-pyridin-3-yl)-isophthalamic acid methyl ester]",1000 to 10000 nM
7,"CC(C)c1onc(-c2c(Cl)cccc2Cl)c1COc1cnc(N(C)Cc2ccc(C(=O)O)cc2)c(Cl)c1 [Example 31, 4-(((3-Chloro-5-((3-(2,6-dichlorophenyl)-5-isopropylisoxazol-4-yl)methoxy)pyridin-2-yl)(methyl)amino)methyl)benzoic acid]",≤ 1000 nM
8,"Cc1nc(OCc2c(-c3c(Cl)cccc3Cl)noc2C(C)C)ccc1NC(=O)c1ccc(C(=O)O)cc1 [Example 1, N-{6[3-(2,6-dichloro-phenyl)-5-isopropyl-isoxazol-4-ylmethoxy]-2-methyl-pyridin-3-yl}-terephthalamic acid]",≤ 1000 nM
9,"Cc1nc(OCc2c(-c3c(Cl)cccc3Cl)noc2C(C)C)ccc1NS(=O)(=O)c1ccc(C(=O)O)cc1 [Example 3, 4-{6-[3-(2,6-Dichloro-phenyl)-5-isopropyl-isoxazol-4-ylmethoxy]-2-methyl-pyridin-3-ylsulfamoyl}-benzoic acid]",≤ 1000 nM
10,"CC(C)c1onc(-c2c(Cl)cccc2Cl)c1COc1ccc(NS(=O)(=O)c2ccc(C(=O)O)cc2)c(C(F)(F)F)n1 [Example 8, 4-{6-[3-(2,6-dichloro-phenyl)-5-isopropyl-isoxazol-4-ylmethoxy]-2-trifluoromethyl-pyridin-3-ylsulfamoyl}-benzoic acid]",1000 to 10000 nM
11,"COc1nc(OCc2c(-c3c(Cl)cccc3Cl)noc2C(C)C)ccc1NC(=O)c1ccc(C(=O)O)cc1 [Example 10, N-{6-[3-(2,6-dichloro-phenyl)-5-isopropyl-isoxazol-4-ylmethoxy]-2-methoxy-pyridin-3-yl}-terephthalamic acid]",≤ 1000 nM
12,"Cc1onc(-c2c(Cl)cccc2Cl)c1COc1ccc(NS(=O)(=O)c2cccc(C(=O)O)c2)cn1 [Example 17, 3-(N-(6-((3-(2,6-dichlorophenyl)-5-methylisoxazol-4-yl)methoxy)pyridin-3-yl)sulfamoyl)benzoic acid]",1000 to 10000 nM
13,"CC(C)c1onc(-c2c(Cl)cccc2Cl)c1COc1ccc(N(C)Cc2ccc(C(=O)OCC(O)CO)cc2)c(C(F)(F)F)n1 (stereo not drawn) [Example 34, 2,3-Dihydroxypropyl 4-(((6-((3-(2,6-dichlorophenyl)-5-isopropylisoxazol-4-yl)methoxy)-2-(trifluoromethyl)pyridin-3-yl)(methyl)amino)methyl)benzoate]",≤ 1000 nM
14,"Cc1onc(-c2c(Cl)cccc2Cl)c1COc1ccc(NC(=O)c2ccc(C(=O)O)cc2)cn1 [Example 16, 4-(6-((3-(2,6-dichlorophenyl)-5-methylisoxazol-4-yl)methoxy)pyridin-3-ylcarbamoyl)benzoic acid]",1000 to 10000 nM
15,"CC(C)c1onc(-c2c(Cl)cccc2Cl)c1COc1ccc(N(C)C(=O)c2cccc(C(=O)O)c2)c(C(F)(F)F)n1 [Example 22, 3-((6-((3-(2,6-Dichlorophenyl)-5-isopropylisoxazol-4-yl)methoxy)-2-(trifluoromethyl)pyridin-3-yl)(methyl)carbamoyl)benzoic acid]",≤ 1000 nM
16,"CC(C)c1onc(-c2c(Cl)cccc2Cl)c1COc1ccc(N(C)Cc2ccc(C(=O)NCC(O)CO)cc2)c(C(F)(F)F)n1 (stereo not drawn) [Example 35, 4-(((6-((3-(2,6-Dichlorophenyl)-5-isopropylisoxazol-4-yl)methoxy)-2-(trifluoromethyl)pyridin-3-yl)(methyl)amino)methyl)-N-(2,3-dihydroxypropyl)benzamide]",≤ 1000 nM
17,"CC(C)c1onc(-c2c(Cl)cccc2Cl)c1COc1ccc(N(C)Cc2ccc(C(=O)OCCO)cc2)c(C(F)(F)F)n1 [Example 33, 2-Hydroxyethyl 4-(((6-((3-(2,6-dichlorophenyl)-5-isopropylisoxazol-4-yl)methoxy)-2-(trifluoromethyl)pyridin-3-yl)(methyl)amino)methyl)benzoate]",≤ 1000 nM
18,"COc1nc(OCc2c(-c3c(Cl)cccc3Cl)noc2C(C)C)ccc1N(C)C(=O)c1ccc(C(=O)O)cc1 [Example 11, N-{6-[3-(2,6-dichloro-phenyl)-5-isopropyl-isoxazol-4-ylmethoxy]-2-methoxy-pyridin-3-yl}-N-methyl-terephthalamic acid]",1000 to 10000 nM
19,"COc1nc(OCc2c(-c3c(Cl)cccc3Cl)noc2C(C)C)ccc1NS(=O)(=O)c1ccc(C(=O)O)cc1 [Example 12, 4-{6[3-(2,6-dichloro-phenyl)-5-isopropyl-isoxazol-4-ylmethoxy]-2-methoxy-pyridin-3-ylsulfamoyl}-benzoic acid]",≤ 1000 nM
20,"CC(C)c1onc(-c2c(Cl)cccc2Cl)c1COc1ccc(N(C)Cc2ccc(C(=O)NCCN(C)C)cc2)c(C(F)(F)F)n1 [Example 37, 4-(((6-((3-(2,6-Dichlorophenyl)-5-isopropylisoxazol-4-yl)methoxy)-2-(trifluoromethyl)pyridin-3-yl)(methyl)amino)methyl)-N-(2-(dimethylamino)ethyl)benzamide]",≤ 1000 nM
21,"Cc1onc(-c2c(Cl)cccc2Cl)c1COc1ccc(NS(=O)(=O)c2ccc(C(=O)O)cc2)cn1 [Example 18, 4-(N-(6-((3-(2,6-dichlorophenyl)-5-methylisoxazol-4-yl)methoxy)pyridin-3-yl)sulfamoyl)benzoic acid]",1000 to 10000 nM
